Measured values from patent US20240158446A1, “CYCLIC COMPOUND HAVING SELECTIVE INHIBITORY ACTION ON KRAS OVER HRAS AND NRAS” (CHUGAI SEIYAKU KABUSHIKI KAISHA, priority 2021, published 2024).

Experiments:
[1] = target: GDP-bound NRAS wild-type protein (Homo sapiens, UniProt P01111); test: Binding to NRAS by surface plasmon resonance (SPR), Single Cycle Kinetics; conditions: SPR, GDP-bound NRAS wild-type protein vs GDP-bound KRAS wild-type protein
[2] = target: GDP-bound HRAS wild-type protein (Homo sapiens, UniProt P01112); test: Binding to HRAS by surface plasmon resonance (SPR), Single Cycle Kinetics; conditions: SPR, GDP-bound HRAS wild-type protein vs GDP-bound KRAS wild-type protein
Chain of GDP-bound HRAS wild-type protein (P01112 whole entry): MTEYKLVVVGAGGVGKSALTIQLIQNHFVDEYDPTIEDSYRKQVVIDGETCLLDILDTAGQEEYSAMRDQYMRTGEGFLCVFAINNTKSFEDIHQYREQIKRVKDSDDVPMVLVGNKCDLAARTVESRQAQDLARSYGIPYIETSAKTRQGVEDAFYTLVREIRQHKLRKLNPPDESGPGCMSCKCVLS

[3] = target: GDP-bound KRAS wild-type protein (Homo sapiens, UniProt P01116); test: Binding to KRAS by surface plasmon resonance (SPR), Single Cycle Kinetics; conditions: SPR, Single Cycle Kinetics, GDP-bound KRAS wild-type protein; read-out: KRAS KD
Chain of GDP-bound KRAS wild-type protein (P01116 whole entry): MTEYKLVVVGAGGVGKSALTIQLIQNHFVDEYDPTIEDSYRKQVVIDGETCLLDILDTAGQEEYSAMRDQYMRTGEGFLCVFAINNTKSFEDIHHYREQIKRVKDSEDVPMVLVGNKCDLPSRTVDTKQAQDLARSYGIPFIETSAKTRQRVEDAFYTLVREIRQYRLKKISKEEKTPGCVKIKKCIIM

Chain of GDP-bound NRAS wild-type protein (P01111 whole entry): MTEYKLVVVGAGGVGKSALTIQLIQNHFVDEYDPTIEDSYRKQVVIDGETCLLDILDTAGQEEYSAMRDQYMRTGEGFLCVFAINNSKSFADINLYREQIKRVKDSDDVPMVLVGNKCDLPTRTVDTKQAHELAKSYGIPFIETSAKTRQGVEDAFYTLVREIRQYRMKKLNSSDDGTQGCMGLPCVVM

SMILES: CCO[C@@H]1C[C@H]2C(=O)NC3(CCC3)C(=O)N(C)[C@@H](C3CCCC3)C(=O)N(C)[C@H](C(=O)N(C)C)CC(=O)N(C)[C@@H](CC)C(=O)N[C@@H]([C@@H](C)CC)C(=O)N(C)CC(=O)N(C)[C@H]3CCCCN(C3=O)[C@@H](Cc3ccc(C(F)(F)F)cc3)C(=O)N(C)CC(=O)N[C@@H](CCc3cc(Cl)c(C(F)(F)F)c(Cl)c3)C(=O)N2C1 [PP0985]
- NRAS/KRAS (ratio of KD value for NRAS to KD value for KRAS) [1]: C (A compound having a KD ratio of 0.1 or more and less than 3 is denoted as C)
- HRAS/KRAS (ratio of KD value for HRAS to KD value for KRAS) [2]: C (A compound having a KD ratio of 0.1 or more and less than 3 is denoted as C)
- Kd [3]: 0.022 nM

SMILES: CCO[C@@H]1C[C@H]2C(=O)NC3(CCC3)C(=O)N(C)[C@@H](C3CCCC3)C(=O)N(C)[C@H](C(=O)N(C)C)CC(=O)N(C)[C@@H](CC)C(=O)N[C@@H]([C@@H](C)CC)C(=O)N(C)CC(=O)N(C)[C@H]3CCCCN(C3=O)[C@@H](Cc3ccc(C(F)(F)F)cc3)C(=O)N(C)CC(=O)N[C@@H](CCc3ccc(OC(F)F)c(F)c3)C(=O)N2C1 [PP0986]
- NRAS/KRAS (ratio of KD value for NRAS to KD value for KRAS) [1]: C (A compound having a KD ratio of 0.1 or more and less than 3 is denoted as C)
- HRAS/KRAS (ratio of KD value for HRAS to KD value for KRAS) [2]: C (A compound having a KD ratio of 0.1 or more and less than 3 is denoted as C)
- Kd [3]: 0.27 nM

SMILES: CCO[C@@H]1C[C@H]2C(=O)NC3(CCC3)C(=O)N(C)[C@@H](C3CCCC3)C(=O)N(C)[C@H](C(=O)N(C)C)CC(=O)N(C)[C@@H](CC)C(=O)N[C@@H]([C@@H](C)CC)C(=O)N(C)CC(=O)N(C)[C@H]3CCCCN(C3=O)[C@@H](Cc3ccc(C(F)(F)F)cc3)C(=O)N(C)CC(=O)N[C@@H](CCc3ccc(Cl)c(Cl)c3)C(=O)N2C1 [PP0987]
- NRAS/KRAS (ratio of KD value for NRAS to KD value for KRAS) [1]: C (A compound having a KD ratio of 0.1 or more and less than 3 is denoted as C)
- HRAS/KRAS (ratio of KD value for HRAS to KD value for KRAS) [2]: C (A compound having a KD ratio of 0.1 or more and less than 3 is denoted as C)
- Kd [3]: 0.024 nM

SMILES: CCO[C@@H]1C[C@H]2C(=O)NC3(CCC3)C(=O)N(C)[C@@H](C3CCCC3)C(=O)N(C)[C@H](C(=O)N(C)C)CC(=O)N(C)[C@@H](CC)C(=O)N[C@@H]([C@@H](C)CC)C(=O)N(C)CC(=O)N(C)[C@H]3CCCCN(C3=O)[C@@H](Cc3ccc(C(F)(F)F)cc3)C(=O)N(C)CC(=O)N[C@@H](CCc3cc(Cl)c(Cl)c(Cl)c3)C(=O)N2C1 [PP0988]
- NRAS/KRAS (ratio of KD value for NRAS to KD value for KRAS) [1]: C (A compound having a KD ratio of 0.1 or more and less than 3 is denoted as C)
- HRAS/KRAS (ratio of KD value for HRAS to KD value for KRAS) [2]: B (a compound having 3 or more and less than 10 is denoted as B)
- Kd [3]: 0.046 nM

SMILES: CCO[C@@H]1C[C@H]2C(=O)NC3(CCC3)C(=O)N(C)[C@@H](C3CCCC3)C(=O)N(C)[C@H](C(=O)N(C)C)CC(=O)N(C)[C@@H](CC)C(=O)N[C@@H]([C@@H](C)CC)C(=O)N(C)CC(=O)N(C)[C@H]3CCCCCN(C3=O)[C@@H](Cc3ccc(C(F)(F)F)cc3)C(=O)N(C)CC(=O)N[C@@H](CCc3cc(Cl)c(C(F)(F)F)c(Cl)c3)C(=O)N2C1 [PP0989]
- NRAS/KRAS (ratio of KD value for NRAS to KD value for KRAS) [1]: B (a compound having 3 or more and less than 10 is denoted as B)
- HRAS/KRAS (ratio of KD value for HRAS to KD value for KRAS) [2]: B (a compound having 3 or more and less than 10 is denoted as B)
- Kd [3]: 1.3 nM

SMILES: CCO[C@@H]1C[C@H]2C(=O)N[C@]3(C)CCCCCC[C@@H](C(=O)N[C@@H]([C@@H](C)CC)C(=O)N(C)CC(=O)N(C)[C@H]4CCCCN(C4=O)[C@@H](Cc4ccc(C(F)(F)F)cc4)C(=O)N(C)CC(=O)N[C@@H](CCc4cc(F)c(C(F)(F)F)c(F)c4)C(=O)N2C1)N(C)C(=O)C[C@@H](C(=O)N1CCOCC1)N(C)C(=O)[C@H](C1CCCC1)N(C)C3=O [PP0992]
- NRAS/KRAS (ratio of KD value for NRAS to KD value for KRAS) [1]: B (a compound having 3 or more and less than 10 is denoted as B)
- HRAS/KRAS (ratio of KD value for HRAS to KD value for KRAS) [2]: B (a compound having 3 or more and less than 10 is denoted as B)
- Kd [3]: 4.6 nM

SMILES: CCO[C@@H]1C[C@H]2C(=O)N[C@@]3(C)CCCCCCC[C@@H](C(=O)N[C@@H]([C@@H](C)CC)C(=O)N(C)CC(=O)N(C)[C@H]4CCCCN(C4=O)[C@@H](Cc4ccc(C(F)(F)F)cc4)C(=O)N(C)CC(=O)N[C@@H](CCc4cc(F)c(C(F)(F)F)c(F)c4)C(=O)N2C1)N(C)C(=O)C[C@@H](C(=O)N1CCOCC1)N(C)C(=O)[C@H](C1CCCC1)N(C)C3=O [PP0993]
- NRAS/KRAS (ratio of KD value for NRAS to KD value for KRAS) [1]: B (a compound having 3 or more and less than 10 is denoted as B)
- HRAS/KRAS (ratio of KD value for HRAS to KD value for KRAS) [2]: B (a compound having 3 or more and less than 10 is denoted as B)
- Kd [3]: 1.4 nM

SMILES: CCCCO[C@@H]1C[C@H]2C(=O)NC3(CCC3)C(=O)N(C)[C@@H](C3CCCC3)C(=O)N(C)[C@H](C(=O)N3CCOCC3)CC(=O)N(C)[C@@H](CC(C)C)C(=O)N[C@@H]([C@@H](C)CC)C(=O)N(C)CC(=O)N(C)[C@H]3CCCCN(C3=O)[C@@H](Cc3ccc(C(F)(F)F)cc3)C(=O)N(C)CC(=O)N[C@@H](CCc3cc(F)c(C(F)(F)F)c(F)c3)C(=O)N2C1 [PP0999]
- NRAS/KRAS (ratio of KD value for NRAS to KD value for KRAS) [1]: C (A compound having a KD ratio of 0.1 or more and less than 3 is denoted as C)
- HRAS/KRAS (ratio of KD value for HRAS to KD value for KRAS) [2]: B (a compound having 3 or more and less than 10 is denoted as B)
- Kd [3]: 0.11 nM

SMILES: CC[C@H](C)[C@@H]1NC(=O)[C@H](CC(C)C)N(C)C(=O)C[C@@H](C(=O)N2CCOCC2)N(C)C(=O)[C@H](C2CCCC2)N(C)C(=O)C2(CCC2)NC(=O)[C@@H]2C[C@@H](OCC3CCCC3)CN2C(=O)[C@H](CCc2cc(F)c(C(F)(F)F)c(F)c2)NC(=O)CN(C)C(=O)[C@H](Cc2ccc(C(F)(F)F)cc2)N2CCCC[C@@H](C2=O)N(C)C(=O)CN(C)C1=O [PP1001]
- NRAS/KRAS (ratio of KD value for NRAS to KD value for KRAS) [1]: B (a compound having 3 or more and less than 10 is denoted as B)
- HRAS/KRAS (ratio of KD value for HRAS to KD value for KRAS) [2]: B (a compound having 3 or more and less than 10 is denoted as B)
- Kd [3]: 0.1 nM

SMILES: CC[C@H](C)[C@@H]1NC(=O)[C@H](CC(C)C)N(C)C(=O)C[C@@H](C(=O)N2CCOCC2)N(C)C(=O)[C@H](C2CCCC2)N(C)C(=O)C2(CCC2)NC(=O)[C@@H]2C[C@@H](OCC(F)F)CN2C(=O)[C@H](CCc2cc(F)c(C(F)(F)F)c(F)c2)NC(=O)CN(C)C(=O)[C@H](Cc2ccc(C(F)(F)F)cc2)N2CCCC[C@@H](C2=O)N(C)C(=O)CN(C)C1=O [PP1002]
- NRAS/KRAS (ratio of KD value for NRAS to KD value for KRAS) [1]: B (a compound having 3 or more and less than 10 is denoted as B)
- HRAS/KRAS (ratio of KD value for HRAS to KD value for KRAS) [2]: B (a compound having 3 or more and less than 10 is denoted as B)
- Kd [3]: 0.025 nM

SMILES: CC[C@H](C)[C@@H]1NC(=O)[C@H](CC(C)C)N(C)C(=O)C[C@@H](C(=O)N2CCOCC2)N(C)C(=O)[C@H](C2CCCC2)N(C)C(=O)C2(CCC2)NC(=O)[C@@H]2C[C@@H](OC)CN2C(=O)[C@H](CCc2cc(F)c(C(F)(F)F)c(F)c2)NC(=O)CN(C)C(=O)[C@H](Cc2ccc(C(F)(F)F)cc2)N2CCCC[C@@H](C2=O)N(C)C(=O)CN(C)C1=O [PP1003]
- NRAS/KRAS (ratio of KD value for NRAS to KD value for KRAS) [1]: C (A compound having a KD ratio of 0.1 or more and less than 3 is denoted as C)
- HRAS/KRAS (ratio of KD value for HRAS to KD value for KRAS) [2]: B (a compound having 3 or more and less than 10 is denoted as B)
- Kd [3]: 0.076 nM

SMILES: CCCCO[C@@H]1C[C@H]2C(=O)NC3(CCC3)C(=O)N(C)[C@@H](C3CCCC3)C(=O)N(C)[C@H](C(=O)N3CCOCC3)CC(=O)N(C)[C@@H](CC(C)C)C(=O)N[C@@H]([C@@H](C)CC)C(=O)N(C)CC(=O)N(C)[C@H]3CCCCCN(C3=O)[C@@H](Cc3ccc(C(F)(F)F)cc3)C(=O)N(C)CC(=O)N[C@@H](CCc3cc(F)c(C(F)(F)F)c(F)c3)C(=O)N2C1 [PP1004]
- NRAS/KRAS (ratio of KD value for NRAS to KD value for KRAS) [1]: B (a compound having 3 or more and less than 10 is denoted as B)
- HRAS/KRAS (ratio of KD value for HRAS to KD value for KRAS) [2]: B (a compound having 3 or more and less than 10 is denoted as B)
- Kd [3]: 3.7 nM

SMILES: CC[C@H](C)[C@@H]1NC(=O)[C@H](CC(C)C)N(C)C(=O)C[C@@H](C(=O)N2CCOCC2)N(C)C(=O)[C@H](C2CCCC2)N(C)C(=O)C2(CCC2)NC(=O)[C@@H]2C[C@@H](OCC3CC3)CN2C(=O)[C@H](CCc2cc(F)c(C(F)(F)F)c(F)c2)NC(=O)CN(C)C(=O)[C@H](Cc2ccc(C(F)(F)F)cc2)N2CCCCC[C@@H](C2=O)N(C)C(=O)CN(C)C1=O [PP1005]
- NRAS/KRAS (ratio of KD value for NRAS to KD value for KRAS) [1]: A (a compound having 10 or more and less than 20 is denoted as A)
- HRAS/KRAS (ratio of KD value for HRAS to KD value for KRAS) [2]: A (a compound having 10 or more and less than 20 is denoted as A)
- Kd [3]: 1.1 nM

SMILES: CC[C@H](C)[C@@H]1NC(=O)[C@H](CC(C)C)N(C)C(=O)C[C@@H](C(=O)N2CCOCC2)N(C)C(=O)[C@H](C2CCCC2)N(C)C(=O)C2(CCC2)NC(=O)[C@@H]2C[C@@H](OCC3CCCC3)CN2C(=O)[C@H](CCc2cc(F)c(C(F)(F)F)c(F)c2)NC(=O)CN(C)C(=O)[C@H](Cc2ccc(C(F)(F)F)cc2)N2CCCC[C@@H](C2=O)N(C)C(=O)CN(C)C1=O [PP1015]
- NRAS/KRAS (ratio of KD value for NRAS to KD value for KRAS) [1]: C (A compound having a KD ratio of 0.1 or more and less than 3 is denoted as C)
- HRAS/KRAS (ratio of KD value for HRAS to KD value for KRAS) [2]: C (A compound having a KD ratio of 0.1 or more and less than 3 is denoted as C)
- Kd [3]: 5 nM
